SMILES strings stand for the structures. Where only a bound is given, the exact number is not on record here.

One series deals with LPS-induced nitric oxide production in RAW264.7 cells. The series can be described thus: LPS-induced NO production, Griess Reagent assay. The series is classed as cell-based, mouse. Particulars: Mus musculus, LPS (0.5 μg/mL) 24 h. On the procedure: RAW264.7 cells (7 × 10^4 cells/well) were seeded into 48-well plate and used for experiments after 24 h. […] After 24 h collect cell supernatant, NO production was measured using Griess Reagent assay (Beyotime). Griess reagent were mixed at a ratio of 1:1, and reacted at room temperature for 15 min. Measurement of absorbance at […] with enzyme reader. At least three independent experiments were performed for the determination of IC50 values, which were shown as mean ± SD. All experimental data were analysed by using GraphPad Prism software, version 8.0 (GraphPad Inc.).
In general, IC50 refers to the midpoint of a concentration-inhibition curve. `COc1cc(O)c(C(C)=O)cc1NC(=O)NCCc1ccccc1F` [Compound D4, 1–(5-acetyl-4-hydroxy-2-methoxyphenyl)-3–(2-fluorophenethyl)urea] came in with an IC50 greater than 10 µM.
On the same count and under the same terms, the same measure for `COc1cccc(NC(=O)Nc2cc(C(C)=O)c(O)cc2OC)c1` [Compound B8, 1–(5-acetyl-4-hydroxy-2-methoxyphenyl)-3–(3-methoxyphenyl) urea]: 4.7 µM.
Turning to `COc1cc(O)c(C(C)=O)cc1NC(=O)NCc1ccccc1Cl` [Compound C1, 1–(5-acetyl-4-hydroxy-2-methoxyphenyl)-3–(2-chlorobenzyl) urea], the IC50 was greater than 10 µM.
The molecule `COc1cc(O)c(C(C)=O)cc1NC(=O)NCc1ccccc1` [Compound C2, 1–(5-acetyl-4-hydroxy-2-methoxyphenyl)-3-benzylurea] returned a half-inhibitory concentration (IC50) greater than 10 µM.
In turn, `CONC(=O)Nc1cc(C(C)=O)c(O)cc1OC` [Compound A4, 1–(5-acetyl-4-hydroxy-2-methoxyphenyl)-3-methoxyurea] came in with a concentration for half-maximal inhibition (IC50) greater than 10 µM.
`COc1cc(O)c(C(C)=O)cc1NC(=O)NCCc1ccccc1` [Compound D1, 1–(5-acetyl-4-hydroxy-2-methoxyphenyl)-3-phenethylurea] yielded a concentration for half-maximal inhibition (IC50) greater than 10 µM.
Molecule `COc1cc(O)c(C(C)=O)cc1NC(=O)NC(C)(C)C` [Compound A8, 1–(5-acetyl-4-hydroxy-2-methoxyphenyl)-3-(tert-butyl) urea] had an IC50 greater than 10 µM.
Turning to `COc1cc(O)c(C(C)=O)cc1NC(=O)Nc1cccc(F)c1` [Compound B5, 1–(5-acetyl-4-hydroxy-2-methoxyphenyl)-3–(3-fluorophenyl) urea], the IC50 amounted to 6.22 µM.
`COc1cc(O)c(C(C)=O)cc1NC(=O)Nc1ccccc1` [Compound B1, 1–(5-acetyl-4-hydroxy-2-methoxyphenyl)-3-phenylurea] registered an IC50 of 9.45 µM.
As for `Cc1ccc(-c2cc(C(F)(F)F)nn2-c2ccc(S(N)(=O)=O)cc2)cc1` [Cel, Celecoxib, reference compound], the IC50 is greater than 10 µM.

Still in this series, the particulars now being: Mus musculus, compounds 10 μM, 1 h, then LPS (0.5 μg/mL) 24 h, read-out: Inhibition rate±SD (%) against NO production.
By inhibition is commonly meant the change of the read-out against control, counted positive when it falls. `COc1cc(O)c(C(C)=O)cc1NC(=O)NCCc1ccccc1F` [Compound D4, 1–(5-acetyl-4-hydroxy-2-methoxyphenyl)-3–(2-fluorophenethyl)urea]: the inhibition at 10 µM was 17.7 ± 2.15%.
For the molecule `COc1cccc(NC(=O)Nc2cc(C(C)=O)c(O)cc2OC)c1` [Compound B8, 1–(5-acetyl-4-hydroxy-2-methoxyphenyl)-3–(3-methoxyphenyl) urea], the inhibition at 10 µM is 74.7 ± 6.15%.
As for `COc1cc(O)c(C(C)=O)cc1NC(=O)NCc1ccccc1Cl` [Compound C1, 1–(5-acetyl-4-hydroxy-2-methoxyphenyl)-3–(2-chlorobenzyl) urea], the inhibition at 10 µM was determined as 33.7 ± 6.15%.
With `COc1cc(O)c(C(C)=O)cc1NC(=O)NCc1ccccc1` [Compound C2, 1–(5-acetyl-4-hydroxy-2-methoxyphenyl)-3-benzylurea], the inhibition at 10 µM came out at 7.86 ± 2.19%.
On the same count and under the same terms, the same measure for `CONC(=O)Nc1cc(C(C)=O)c(O)cc1OC` [Compound A4, 1–(5-acetyl-4-hydroxy-2-methoxyphenyl)-3-methoxyurea]: 15.2 ± 4.18%; for `COc1cc(O)c(C(C)=O)cc1NC(=O)NCCc1ccccc1` [Compound D1, 1–(5-acetyl-4-hydroxy-2-methoxyphenyl)-3-phenethylurea]: 15.3 ± 5.12%; for `COc1cc(O)c(C(C)=O)cc1NC(=O)NC(C)(C)C` [Compound A8, 1–(5-acetyl-4-hydroxy-2-methoxyphenyl)-3-(tert-butyl) urea]: 12.3 ± 4.12%.
The same measure, in the same setting: the same measure for `COc1cc(O)c(C(C)=O)cc1NC(=O)Nc1cccc(F)c1` [Compound B5, 1–(5-acetyl-4-hydroxy-2-methoxyphenyl)-3–(3-fluorophenyl) urea]: 63 ± 3.87%.
The same measure, in the same setting: the same measure for `COc1cc(O)c(C(C)=O)cc1NC(=O)Nc1ccccc1` [Compound B1, 1–(5-acetyl-4-hydroxy-2-methoxyphenyl)-3-phenylurea]: 51 ± 3.25%; for `Cc1ccc(-c2cc(C(F)(F)F)nn2-c2ccc(S(N)(=O)=O)cc2)cc1` [Cel, Celecoxib, reference compound]: 30.1 ± 2.33%.

Test system in a further series: not listed separately
The experiment in a line: Cell viability assay (MTT), LO2. The class given is cell-based. Conditions: human, LO2 cells, read-out: Cytotoxicity IC50 with LO2.
For `COc1cc(O)c(C(C)=O)cc1NC(=O)NCCc1ccccc1F` [Compound D4, 1–(5-acetyl-4-hydroxy-2-methoxyphenyl)-3–(2-fluorophenethyl)urea], the IC50 at 24 h was greater than 100 µM.
For the molecule `COc1cccc(NC(=O)Nc2cc(C(C)=O)c(O)cc2OC)c1` [Compound B8, 1–(5-acetyl-4-hydroxy-2-methoxyphenyl)-3–(3-methoxyphenyl) urea], the IC50 at 24 h was greater than 100 µM.
Turning to `COc1cc(O)c(C(C)=O)cc1NC(=O)NCc1ccccc1Cl` [Compound C1, 1–(5-acetyl-4-hydroxy-2-methoxyphenyl)-3–(2-chlorobenzyl) urea], the 50% inhibitory concentration (IC50) at 24 h is greater than 100 µM.
`COc1cc(O)c(C(C)=O)cc1NC(=O)NCc1ccccc1` [Compound C2, 1–(5-acetyl-4-hydroxy-2-methoxyphenyl)-3-benzylurea]: the IC50 at 24 h was greater than 100 µM.
Still for that read-out and setting: the same measure for `CONC(=O)Nc1cc(C(C)=O)c(O)cc1OC` [Compound A4, 1–(5-acetyl-4-hydroxy-2-methoxyphenyl)-3-methoxyurea]: greater than 100 µM.
Consider `COc1cc(O)c(C(C)=O)cc1NC(=O)NCCc1ccccc1` [Compound D1, 1–(5-acetyl-4-hydroxy-2-methoxyphenyl)-3-phenethylurea], for which the IC50 at 24 h is greater than 100 µM.
As for `COc1cc(O)c(C(C)=O)cc1NC(=O)NC(C)(C)C` [Compound A8, 1–(5-acetyl-4-hydroxy-2-methoxyphenyl)-3-(tert-butyl) urea], the concentration for half-maximal inhibition (IC50) at 24 h is greater than 100 µM.
For `COc1cc(O)c(C(C)=O)cc1NC(=O)Nc1cccc(F)c1` [Compound B5, 1–(5-acetyl-4-hydroxy-2-methoxyphenyl)-3–(3-fluorophenyl) urea], the IC50 at 24 h is greater than 100 µM.
Regarding `COc1cc(O)c(C(C)=O)cc1NC(=O)Nc1ccccc1` [Compound B1, 1–(5-acetyl-4-hydroxy-2-methoxyphenyl)-3-phenylurea], the IC50 at 24 h was greater than 100 µM.
Turning to `Cc1ccc(-c2cc(C(F)(F)F)nn2-c2ccc(S(N)(=O)=O)cc2)cc1` [Cel, Celecoxib, reference compound], the IC50 at 24 h is greater than 100 µM.

Test system in the next series: not listed separately
The experiment in a line: Cell viability assay (MTT), RAW264.7. The class given is cell-based, mouse. Conditions: mouse, RAW264.7 cells, read-out: Cytotoxicity IC50 with RAW264.7. On the procedure: RAW264.7 cells (1 × 10^4 cells/well) were seeded into 96-well plate and used for experiments after 24 h. Compounds (4 µM, 20 µM and 100 µM) treated cell for 24 h. Forty microliters of MTT solution (5 mg/mL, Sigma-Aldrich) was then added and incubated for an additional 4 h. After 4 h, cell culture supernatants were removed and DMSO (150 µL) was added into per well for dissolving the resulting crystals. Shaking about 1 0 ∼ 15 min and the absorbance at 492 nm was measured by a microplate reader (MQX200, Bio-Tek, Winooski, VT). At least three independent experiments were performed for the determination of IC50 values, which were shown as mean ± SD. All experimental data were analysed by using GraphPad Prism software, version 8.0 (GraphPad Inc.).
As for `COc1cc(O)c(C(C)=O)cc1NC(=O)NCCc1ccccc1F` [Compound D4, 1–(5-acetyl-4-hydroxy-2-methoxyphenyl)-3–(2-fluorophenethyl)urea], the concentration for half-maximal inhibition (IC50) at 24 h is greater than 100 µM.
On the same count and under the same terms, the same measure for `COc1cccc(NC(=O)Nc2cc(C(C)=O)c(O)cc2OC)c1` [Compound B8, 1–(5-acetyl-4-hydroxy-2-methoxyphenyl)-3–(3-methoxyphenyl) urea]: greater than 100 µM.
Turning to `COc1cc(O)c(C(C)=O)cc1NC(=O)NCc1ccccc1Cl` [Compound C1, 1–(5-acetyl-4-hydroxy-2-methoxyphenyl)-3–(2-chlorobenzyl) urea], the concentration for half-maximal inhibition (IC50) at 24 h is greater than 100 µM.
Consider `COc1cc(O)c(C(C)=O)cc1NC(=O)NCc1ccccc1` [Compound C2, 1–(5-acetyl-4-hydroxy-2-methoxyphenyl)-3-benzylurea], for which the IC50 at 24 h is greater than 100 µM.
Still for that read-out and setting: the same measure for `CONC(=O)Nc1cc(C(C)=O)c(O)cc1OC` [Compound A4, 1–(5-acetyl-4-hydroxy-2-methoxyphenyl)-3-methoxyurea]: greater than 100 µM; for `COc1cc(O)c(C(C)=O)cc1NC(=O)NCCc1ccccc1` [Compound D1, 1–(5-acetyl-4-hydroxy-2-methoxyphenyl)-3-phenethylurea]: greater than 100 µM; for `COc1cc(O)c(C(C)=O)cc1NC(=O)NC(C)(C)C` [Compound A8, 1–(5-acetyl-4-hydroxy-2-methoxyphenyl)-3-(tert-butyl) urea]: greater than 100 µM.
The same measure, in the same setting: the same measure for `COc1cc(O)c(C(C)=O)cc1NC(=O)Nc1cccc(F)c1` [Compound B5, 1–(5-acetyl-4-hydroxy-2-methoxyphenyl)-3–(3-fluorophenyl) urea]: greater than 100 µM; for `COc1cc(O)c(C(C)=O)cc1NC(=O)Nc1ccccc1` [Compound B1, 1–(5-acetyl-4-hydroxy-2-methoxyphenyl)-3-phenylurea]: greater than 100 µM; for `Cc1ccc(-c2cc(C(F)(F)F)nn2-c2ccc(S(N)(=O)=O)cc2)cc1` [Cel, Celecoxib, reference compound]: greater than 100 µM.

Test system in the next series: not given
Experiment: not given
Conditions: not given
The term melting point denotes the temperature, or range, at which the solid turns liquid. Consider `COc1cc(O)c(C(C)=O)cc1NC(=O)NCc1ccccc1` [Compound C2, 1–(5-acetyl-4-hydroxy-2-methoxyphenyl)-3-benzylurea], for which the melting point lay within 194 to 195 °C.
In the case of `CONC(=O)Nc1cc(C(C)=O)c(O)cc1OC` [Compound A4, 1–(5-acetyl-4-hydroxy-2-methoxyphenyl)-3-methoxyurea], the melting point was 176 to 177 °C.

The record behind these values is article PMC8890542, “Discovery of novel paeonol-based derivatives against skin inflammation in vitro and in vivo” (Journal of Enzyme Inhibition and Medicinal Chemistry, 2022).
